Here are results for 21 compounds from PubChem BioAssay (NCI).

Holding throughout (assay): growth of human tumour cells (NCI), 48 h
Experiment [1] deals with SN12C renal.
In experiment [2] the test system is A549 NSCLC.
Experiment [3] has as its system OVCAR-8 ovarian.
Experiment [4] relates to UACC-62 melanoma.
In experiment [5] the test system is NCI-H522 lung.
In experiment [6] the test system is UO-31 renal.
For experiment [7], the system named is SW-620 colon.
Experiment [8] has as its system COLO 205 colon.
In experiment [9] the test system is SF-539 CNS.
Experiment [10] relates to SNB-19 CNS.
Experiment [11] concerns 786-0 renal.
Experiment [12] relates to PC-3 prostate.
Experiment [13] concerns EKVX NSCLC.
Experiment [14] relates to K-562 leukemia.
In experiment [15] the test system is T-47D breast.

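These data come from cells grown in 96-well plates and exposed to compound for 48 hours at five concentrations. TGI marks complete inhibition of growth.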 Where only a bound is given, the exact number is not on record here.

On to `O=[N+]([O-])c1cc2ccc1OCc1cccc(n1)COc1ccc(cc1[N+](=O)[O-])C=NCCCCCCCCN=C2`, for which the TGI in experiment [1], in experiment [2], in experiment [3], in experiment [4], in experiment [5] and in [6] was more than 100 µM each time. Further, the TGI in experiment [7], in experiment [8], in [9], in experiment [10], in experiment [11] and in [12] was more than 100 µM throughout. The TGI in experiment [13] and in [14] was more than 100 µM throughout.

Take `C/C(=C(/C)c1cc[n+](C)cc1)c1cc[n+](C)cc1`: the TGI in experiment [1], in experiment [2], in [3], in [4], in experiment [5] and in [6] was more than 75 µM each time. Besides, the TGI in experiment [8], in [9], in experiment [10], in experiment [11], in [13] and in experiment [14] was more than 75 µM each time.

For `Cn1nc(S(N)(=O)=O)s/c1=N/S(=O)(=O)c1ccc(N)cc1`, the TGI in experiment [2], in experiment [3], in experiment [4], in [6], in [7] and in [8] was more than 100 µM in each case. Besides, the TGI in experiment [9], in experiment [10], in [11], in [12] and in experiment [13] was more than 100 µM each time.

Take `COCCNC1CCC(=O)c2[nH]c3ccccc3c21` (configuration not stated): the TGI in experiment [1], in experiment [2], in experiment [3], in experiment [5], in [6] and in experiment [7] was more than 100 µM each time. Moreover, the TGI in experiment [8], in experiment [9], in experiment [10], in experiment [11], in [12] and in experiment [13] was more than 100 µM throughout. In addition, in experiment [14], the TGI was more than 100 µM.

Regarding `O=C(Nc1ccccc1[N+](=O)[O-])C(=O)C(C(=O)c1ccccc1-c1ccccc1)C1OC(=O)c2ccccc21` (configuration not stated), the TGI in experiment [1] was determined as 30.3 µM; in experiment [2], 72.6 µM; in experiment [3] it was 44.1 µM; in experiment [4], 32.8 µM; in [5], 25.3 µM; in experiment [6], 29.8 µM. Besides, the TGI was 36.7 µM in experiment [7]; 32.6 µM in [8]; 29.2 µM in experiment [9]; 33.2 µM in experiment [10]; 28.6 µM in experiment [11]; 51 µM in experiment [13]. Besides, in [14], the TGI is 60.6 µM.

As for `COc1ccc(-c2cc(=O)c3ccc(F)cc3[nH]2)cc1`, the TGI in experiment [1], in experiment [2], in [3], in [4], in experiment [5] and in experiment [6] was more than 100 µM in each case. Also, the TGI in [7], in experiment [8], in experiment [9], in [10], in [11] and in [13] was more than 100 µM in each case. The TGI in [14] is more than 100 µM.

Regarding `O=c1[nH]cc(COCC(O)CO)c(=O)[nH]1` (configuration not stated), the TGI in [1], in experiment [2], in [3], in [4], in [5] and in [6] was more than 100 µM in each case. In addition, the TGI in experiment [7], in experiment [8], in [9], in experiment [10], in experiment [11] and in experiment [13] was more than 100 µM in each case. For the same compound, the TGI in experiment [14] was more than 100 µM.

As to `Cc1cc(C)nc(NS(=O)(=O)c2ccc(Nc3nnc(/C=C/c4c(O)ccc5ccccc45)c(=O)n3N)cc2)n1`, the TGI in experiment [1] was 73.2 µM; in [2], more than 100 µM; in [3] it was 87.2 µM; in [15], 51.5 µM; in experiment [4], 60.1 µM; in experiment [6] it was 86.3 µM. In addition, the TGI in experiment [7] was more than 100 µM; in experiment [10], more than 100 µM; in experiment [11] it was 62.9 µM; in experiment [13] it was 78.5 µM; in experiment [14] it was more than 100 µM.

Consider `CC(C)(C)OC(=O)NC(Cc1ccc(OCc2ccccc2)cn1)C(N)=O` (configuration not stated), for which the TGI in experiment [1], in experiment [2], in [3], in experiment [5], in experiment [6] and in [7] was more than 100 µM in each case. Further, the TGI in [8], in experiment [9], in [10], in experiment [11], in experiment [12] and in experiment [13] was more than 100 µM each time. The compound further yielded a TGI in [14] of more than 100 µM.

Regarding `O=C(NN1C(=O)C(Cl)C1c1cccc(Cl)c1)c1ccccc1O` (configuration not stated), the TGI in experiment [1], in [2], in [3], in experiment [4], in experiment [5] and in [6] was more than 100 µM throughout. Besides, the TGI in experiment [9], in [10], in experiment [11] and in experiment [14] was more than 100 µM throughout.

Take `CC(C)(C)OC(=O)NC(Cc1ccc(OCc2ccccc2)cn1)C(=O)O` (configuration not stated): the TGI in experiment [1], in [2], in experiment [3], in [5], in [6] and in experiment [7] was more than 100 µM throughout. The TGI in experiment [8], in experiment [9], in experiment [10], in experiment [11], in experiment [12] and in [13] was more than 100 µM each time. For the same compound, the TGI in experiment [14] was more than 100 µM.

In the case of `C/C(CC(=O)Nc1ccccc1)=N\NC(N)=S`, the TGI in [2], in [3], in [4], in experiment [5], in [6] and in [7] was more than 100 µM each time. Moreover, the TGI in experiment [8], in experiment [9], in [11], in experiment [13] and in experiment [14] was more than 100 µM throughout.

`COc1cccc(N2C(=O)C3c4[nH]c5ccc(C)cc5c4C4CCC(C)CC4C3C2=O)c1` (configuration not stated): the TGI in experiment [1], in [2], in [3], in experiment [4], in experiment [6] and in experiment [7] was more than 100 µM throughout. For the same compound, the TGI in [8], in experiment [9], in experiment [10], in experiment [11], in [12] and in experiment [13] was more than 100 µM in each case. In experiment [14], this compound showed a TGI of more than 100 µM.

Consider `CC(=O)OC1CC2C(C)(C)OC(=O)CC(OC(C)=O)[C@]2(C)C2CCC3(C)C(=CCC3c3ccoc3)[C@]12C` (some centres not stated), for which the TGI in experiment [1] was more than 100 µM; in experiment [2], more than 100 µM; in experiment [3] it was 87.1 µM; in [4], more than 100 µM; in experiment [5], 81.2 µM; in experiment [6], more than 100 µM. Further, the TGI is more than 100 µM in experiment [7]; 29.8 µM in [8]; 93.3 µM in experiment [9]; more than 100 µM in experiment [10]; more than 100 µM in experiment [11]; more than 100 µM in experiment [13]. The compound further showed a TGI in [14] of more than 100 µM.

As for `CC1CN=C(NS(=O)(=O)c2cc(C(=O)Nc3ccccc3)c(Cl)cc2S)NN1` (configuration not stated), the TGI in experiment [1] was more than 100 µM; in [2], more than 100 µM; in [3] it was more than 100 µM; in experiment [4], more than 100 µM; in experiment [5] it was 76.1 µM; in experiment [6], more than 100 µM. Moreover, the TGI in experiment [7], in experiment [8], in [9], in [10], in [11] and in [12] was more than 100 µM in each case. In addition, the TGI in experiment [13] and in experiment [14] was more than 100 µM throughout.

In the case of `OCCSCC/C(=N\N=C(/CCSCCO)c1ccccc1)c1ccccc1`, the TGI in [1], in experiment [2], in [3], in [4], in [6] and in experiment [7] was more than 100 µM throughout. For the same compound, the TGI in [8], in [9], in [10], in experiment [11], in experiment [13] and in [14] was more than 100 µM each time.

As to `Oc1ccc2ccccc2c1NCn1nc(CCCCCCCCc2nn(CNc3c(O)ccc4ccccc34)c(=S)o2)oc1=S`, the TGI in experiment [1], in [2], in experiment [4], in [5], in experiment [6] and in [7] was more than 100 µM throughout. The TGI in [8], in experiment [10], in experiment [11], in experiment [12], in experiment [13] and in experiment [14] was more than 100 µM throughout.

As for `CN1C(=O)C(C#N)C2C[C@@]1(C)Oc1ccccc12` (some centres not stated), the TGI in [2], in experiment [3], in experiment [4], in [5], in experiment [6] and in experiment [7] was more than 100 µM in each case. The TGI in experiment [8], in experiment [10], in experiment [11], in [12], in [13] and in [14] was more than 100 µM throughout.

`O=c1[nH]c2cc3[nH]c(=O)c(=O)[nH]c3cc2[nH]c1=O`: the TGI in experiment [1], in experiment [2], in experiment [3], in experiment [4], in experiment [5] and in experiment [6] was more than 100 µM each time. Moreover, the TGI in [7], in [8], in experiment [9], in experiment [10], in [11] and in [12] was more than 100 µM in each case. In addition, the TGI in [13] and in experiment [14] was more than 100 µM in each case.

As to `CNC(=O)OCc1nc(N=[N+]=[N-])n(C)c1COC(=O)NC`, the TGI in [1] is more than 100 µM; in experiment [2], more than 100 µM; in experiment [3], more than 100 µM; in [5], 40.7 µM; in experiment [6], more than 10 µM; in experiment [7] it was more than 100 µM. Moreover, the TGI is more than 100 µM in experiment [8]; more than 100 µM in [9]; more than 10 µM in [11]; more than 100 µM in [12]; more than 100 µM in [13]; more than 100 µM in experiment [14].

Take `C=CCN(N=O)C(=O)N(CCCCC(NC(C)=O)C(=O)NCc1ccccc1)Cc1ccccc1` (configuration not stated): the TGI in experiment [1] was more than 100 µM; in experiment [2], more than 100 µM; in experiment [3], more than 100 µM; in experiment [4], more than 100 µM; in experiment [5] it was 39.9 µM; in [6], 91.7 µM. Moreover, the TGI is more than 100 µM in experiment [7]; 51.7 µM in [8]; more than 100 µM in experiment [9]; more than 100 µM in [10]; more than 100 µM in [11]; more than 100 µM in experiment [13]. In experiment [14], this compound showed a TGI of more than 100 µM.
